In US12037344B2, “NLRP3 modulators” (INNATE TUMOR IMMUNITY, INC., priority 2018, dated 2024):
pEC50: −log10 of the molar value. Counter-ions that a name gives are not always drawn. Like-named read-outs stand apart in the source and are kept apart here.

Experiments:
THP-1 cells = assay: Measurement of IL-1β production, hTRF protocol (second alternative procedure), THP-1 cells; format: cell-based, human; settings: read-out: NLRP3 hILIB EC50
Protocol: Measurement of IL-1β Production—hTRF Protocol (Second Alternative Procedure)
Serial dilutions of compounds in DMSO were added to low volume 384 well plates at 100 nl/well using an ECHO 550 acoustic dispenser (Labcyte) to achieve final starting concentration of 10 μM in assay.
THP-1 cells in RPMI (Gibco, 11875) media with 10% FBS at a density of 1×10^6 cell/ml in a T175 flask were treated with a final concentration of phorbol 12-myristate 13-acetate (PMA) (Sigma, P1585) of 50 ng/ml overnight at 37° C. at 5% CO2 for differentiation. Cells were harvested the next day after rinsing well with dPBS using 0.5% trypsin. A cell solution was prepared of 1×10^6 cells/ml for 50,000 cells in 50 μl/well in RPMI media with 2% FBS. Cells were plated using a multichannel pipette onto the compound dilutions in Greiner, 384 well, black clear bottom tissue culture treated plates (781090). The plates were incubated in 37° C. incubator at 5% CO2 for 2 hours.
After the 2 hour incubation, the cell plates were spun in the centrifuge for 5 minutes at 1200 rpm. Using the Felix (CyBio), 8 μl of the supernatant was transferred to 384 well, low volume, white proxy plates. (Perkin Elmer, 6008230). A human IL1beta hTRF kit was used to analyze the supernatant (CISBIO, 62HIL1BPEG). The kit instructions were followed for preparing the IL1Beta standard curve and then the antibodies from the kit were diluted 1:40 rather than 1:20 as kit instructed. Once combined, the antibodies were added across the plates, 5 μl/well. The plates were sealed and incubated at 4° C. overnight. The plates were then read on the Perkin Elmer EnVision at 665/615 nm using the hTRF laser.

TLR8 = target: T1, TLR8 (Homo sapiens, UniProt Q9NR97); assay: In vitro human TLR8 binding reporter assay (HEK-Blue, NF-kB/AP1-inducible SEAP); format: cell-based; settings: read-out: TLR8 Agonist EC50
T1 construct: human HEK-Blue cells co-expressing a TLR7 or TLR8 gene
T1 sequence (Q9NR97 27-1041): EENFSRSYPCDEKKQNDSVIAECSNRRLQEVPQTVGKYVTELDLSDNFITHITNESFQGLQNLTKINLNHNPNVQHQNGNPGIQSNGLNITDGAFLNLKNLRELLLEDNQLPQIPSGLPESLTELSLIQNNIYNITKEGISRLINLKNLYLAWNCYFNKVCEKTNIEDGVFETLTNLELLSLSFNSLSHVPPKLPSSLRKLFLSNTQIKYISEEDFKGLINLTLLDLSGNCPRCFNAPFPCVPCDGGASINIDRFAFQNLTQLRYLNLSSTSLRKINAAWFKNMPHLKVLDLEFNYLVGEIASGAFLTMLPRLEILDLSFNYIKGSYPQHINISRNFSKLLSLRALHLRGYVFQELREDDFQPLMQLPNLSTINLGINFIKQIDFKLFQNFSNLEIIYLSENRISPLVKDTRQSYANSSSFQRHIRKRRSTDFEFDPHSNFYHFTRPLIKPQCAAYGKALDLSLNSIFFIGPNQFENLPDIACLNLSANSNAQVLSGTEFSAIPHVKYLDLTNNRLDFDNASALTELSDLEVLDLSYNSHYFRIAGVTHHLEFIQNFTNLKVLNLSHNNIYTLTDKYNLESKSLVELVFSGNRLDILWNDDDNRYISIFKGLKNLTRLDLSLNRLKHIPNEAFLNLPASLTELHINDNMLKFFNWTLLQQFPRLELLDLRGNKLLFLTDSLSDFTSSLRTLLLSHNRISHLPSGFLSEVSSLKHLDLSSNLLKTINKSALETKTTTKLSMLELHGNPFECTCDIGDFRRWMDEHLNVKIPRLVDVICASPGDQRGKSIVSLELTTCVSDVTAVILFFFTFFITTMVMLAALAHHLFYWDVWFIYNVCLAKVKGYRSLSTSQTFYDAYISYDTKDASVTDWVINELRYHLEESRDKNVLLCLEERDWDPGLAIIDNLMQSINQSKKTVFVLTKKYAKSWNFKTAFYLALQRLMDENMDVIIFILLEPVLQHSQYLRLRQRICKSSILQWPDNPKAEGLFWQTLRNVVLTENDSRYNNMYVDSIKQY
Protocol: (§1) In Vitro Human TLR7 and TLR8 Binding Reporter Assays
(§2) Logarithmically-growing human HEK-Blue cells co-expressing a TLR7 or TLR8 gene and a NF-kB/AP1-inducible SEAP (secreted embryonic alkaline phosphatase; Invivogen, San Diego, CA) reporter gene are added to individual wells of a 384-well plate (15,000 cells per 20 μL per well) and maintained for 24 h at 37° C., 5% CO2. Test compounds or DMSO are distributed to separate wells the next day using acoustic liquid handling technology (100 nL per well) and cells are subsequently incubated for 18 h at 37° C., 5% CO2. Cellular SEAP production is measured using an Envision plate reader instrument thirty minutes after adding freshly-made Quanti-Blue reagent (prepared by following manufacturer instructions; Invivogen, San Diego, CA) to the HEK-Blue TLR Nf-kB-SEAP cell reactions. All EC50 values (half-maximal effective concentration) are determined using proprietary data analysis software. Normalized EC50 value=absolute value determined by setting 100% Ymax using a reference standard RLU (relative light unit) values from cells treated with 50 μM of the reference standard.

TLR7 = target: T2, TLR7 (Homo sapiens, UniProt Q9NYK1); assay: In vitro human TLR7 binding reporter assay (HEK-Blue, NF-kB/AP1-inducible SEAP); format: cell-based; settings: read-out: TLR7 Agonist EC50
T2 construct: human HEK-Blue cells co-expressing a TLR7 or TLR8 gene
T2 sequence (Q9NYK1 27-1049): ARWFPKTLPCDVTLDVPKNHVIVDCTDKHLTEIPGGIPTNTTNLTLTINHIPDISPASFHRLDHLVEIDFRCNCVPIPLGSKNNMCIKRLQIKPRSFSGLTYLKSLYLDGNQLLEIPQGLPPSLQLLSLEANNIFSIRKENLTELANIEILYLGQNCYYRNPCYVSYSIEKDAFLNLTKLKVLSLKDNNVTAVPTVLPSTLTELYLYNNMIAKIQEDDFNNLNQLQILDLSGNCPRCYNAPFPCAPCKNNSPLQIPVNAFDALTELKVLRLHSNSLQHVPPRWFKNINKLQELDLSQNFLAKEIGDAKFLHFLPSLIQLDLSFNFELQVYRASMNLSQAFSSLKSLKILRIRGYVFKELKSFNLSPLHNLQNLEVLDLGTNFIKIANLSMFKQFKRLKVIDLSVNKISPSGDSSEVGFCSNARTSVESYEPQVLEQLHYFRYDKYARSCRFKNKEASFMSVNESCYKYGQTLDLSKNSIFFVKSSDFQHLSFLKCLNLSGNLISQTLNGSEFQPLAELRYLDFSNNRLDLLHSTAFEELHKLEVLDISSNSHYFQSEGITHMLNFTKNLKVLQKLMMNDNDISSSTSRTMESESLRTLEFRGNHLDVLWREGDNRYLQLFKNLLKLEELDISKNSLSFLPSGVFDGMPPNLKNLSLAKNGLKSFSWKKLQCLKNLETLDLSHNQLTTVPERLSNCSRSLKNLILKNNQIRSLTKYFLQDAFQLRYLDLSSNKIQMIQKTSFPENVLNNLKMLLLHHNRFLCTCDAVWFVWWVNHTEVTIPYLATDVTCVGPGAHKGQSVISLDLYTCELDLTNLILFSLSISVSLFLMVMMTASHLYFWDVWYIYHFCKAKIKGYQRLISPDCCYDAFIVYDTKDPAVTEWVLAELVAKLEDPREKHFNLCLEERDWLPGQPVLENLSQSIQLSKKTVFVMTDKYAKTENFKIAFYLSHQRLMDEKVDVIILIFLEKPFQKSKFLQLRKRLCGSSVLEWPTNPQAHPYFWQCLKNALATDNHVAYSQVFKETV
Protocol: as §1, §2

[1] = Homo sapiens, THP-1, IL-1β production, human
[2] = Homo sapiens, THP-1, IL-1β production, human cells

Compound	pEC50 (THP-1 cells; [1])	pEC50 (TLR8; activity range class)	pEC50 (TLR7; activity range class)	pEC50 (THP-1 cells; IL-1β production, human)	pEC50 (THP-1 cells; [2])	pEC50 (TLR8; activity range)	pEC50 (TLR7; activity range)
Nc1nc2cc(-n3cccn3)ccc2c2c1cnn2CCO [Example 250, 2-(4-amino-7-(1H-pyrazol-1-yl)-1H-pyrazolo[4,3-c]quinolin-1-yl)ethan-1-ol]	5.71	< 4.00	< 4.00	–	–	–	–
CO[C@@H](CO)Cn1cc2c(N)nc3cc(-c4cc[nH]n4)ccc3c2n1 [Example 289, (2R)-3-[4-amino-7-(1H-pyrazol-3-yl)-2H-pyrazolo[4,3-c]quinolin-2-yl]-2-methoxypropan-1-ol, HCl]	–	< 4.00	4.70 to 6.00	6.55	–	–	–
Nc1nc2cc(-c3cc[nH]n3)ccc2c2[nH]c(CN3C[C@H]4COC[C@H]4C3)cc12 [Example 490]	–	–	–	–	6.08	< 4.00	< 4.00
CC(C(=O)NCC1CCOCC1)n1cc2c(N)nc3cc(-c4ccn[nH]4)ccc3c2n1 (stereo not drawn) [Example 566]	–	–	–	–	4.56	< 4.00	< 4.00
COCCS(=O)(=O)NCCc1cc2c(N)nc3cc(-c4cc[nH]n4)ccc3c2[nH]1 [Example 498]	–	–	–	–	5.62	< 4.00	< 4.00
COC(C)Cn1cc2c(N)nc3cc(-c4cc[nH]n4)ccc3c2n1 (single isomer, unassigned) [Example 346]	–	< 4.00	< 4.00	6.19	–	–	–
CC(C(=O)N1CCC1)n1cc2c(N)nc3cc(-c4ccn[nH]4)ccc3c2n1 (stereo not drawn) [Example 576]	–	–	–	–	5.79	< 4.00	< 4.00
Nc1nc2cc(-c3cc[nH]n3)ccc2c2c1cnn2CCO [Example 217]	5.93	< 4.00	< 4.00	–	–	–	–
CN(C)C(=O)Cn1cc2c(N)nc3cc(-n4cccn4)ccc3c2n1 [Example 553]	–	–	–	–	5.68	< 4.00	< 4.00
COCC(C)n1cc2c(N)nc3cc(-c4cc[nH]n4)ccc3c2n1 (stereo not drawn) [Example 336]	6.33	< 4.00	< 4.00	–	–	–	–
COCC(O)Cn1ncc2c(N)nc3cc(-c4cc[nH]n4)ccc3c21 (stereo not drawn) [Example 306]	5.90	< 4.00	< 4.00	–	–	–	–
Cc1cccc(C(=O)NCCn2cc3c(n2)c(N)nc2cc(-c4cc[nH]n4)ccc23)n1 [Example 49]	6.21	4.00 to 4.70	< 4.00	–	–	–	–
Nc1nc2cc(-c3cc[nH]n3)ccc2c2[nH]c(CN3C[C@H]4CC[C@@H](C3)O4)cc12 [Example 473]	–	–	–	–	6.31	< 4.00	< 4.00
